Reference: US10238689B2, “Methods for combating bacterial infections by killing persister cells with mitomycin C and/or cisplatin” (THE PENN STATE RESEARCH FOUNDATION, priority 2015, dated 2019)
Entries after “also recorded” stand apart in the source; their conditions may differ.

What was measured:
EHEC biofilm cultures = settings: M9-glucose, 24 h treatment, MMC 10 μg/mL, ciprofloxacin 5 μg/mL
[1] = system: clinical strains of P. aeruginosa; test: Persister cell assay, multi-drug resistant clinical strains; type: cell-based, Pseudomonas aeruginosa; settings: cisplatin 100 μg/mL
Experimental: For the persister cell assay of the pathogens, stationary-phase cells were used. Cultures of EHEC, P. aeruginosa, and S. aureus were prepared by a 1:1000 dilution of overnight grown cultures (LB medium for EHEC and P. aeruginosa, TSB for S. aureus) into fresh buffered LB medium for EHEC, M9-glucose for P. aeruginosa, and TSB for S. aureus and re-growing the cells to a turbidity of 3 to 4 at 600 nm for EHEC and S. aureus and growing for 24 h for P. aeruginosa. […]

E. coli K-12 = type: cell-based, Escherichia coli
Experimental: Persister cell killing and eradication assays (planktonic cells). For the time course experiment, late stationary phase cells of E. coli K-12 (wild-type and isogenic mutants) were prepared by growing cells overnight (16 h) in LB medium buffered with 100 mM KPO4 at pH 7.0 (buffered LB). A 1 mL culture was used for a drop (10 μL×3) assay to check cell viability at 0 h (i.e., before antibiotic treatment). […] At 1 h intervals, 1 mL culture was centrifuged at 10,000 rpm for 3 min, the supernatant was discarded, the cells were resuspended in 1 mL of normal saline (0.85% NaCl), and the cell suspension was serially diluted for a drop assay to check cell viability.
To test for eradication, the wild-type E. coli K-12 cells were treated with cisplatin for 12 h, a 1 mL sample was centrifuged, the cell pellet was resuspended in 150 μL of normal saline, and the cells were spread on LB agar to check cell viability. Another 1 mL culture was diluted 1:10 with fresh buffered LB and the cells were incubated to allow any remaining cells to replicate. After 12 h, 18 h, and 24 h, 1 mL samples were centrifuged, resuspended in 150 μL of normal saline and spread on LB agar plates to check cell viability. At least two independent cultures were used.

In the case of CO[C@@]12[C@H](COC(N)=O)C3=C(C(=O)C(C)=C(N)C3=O)N1C[C@@H]1N[C@@H]12 [MMC, mitomycin C], the cells surviving (EHEC biofilm cultures) is reported as “eradicated”.
N.N.[Cl][Pt][Cl] [cisplatin, cis-diamminodichloroplatinum(II)] was tested, and the survival ([1]; strain INP-37) was 0.05±0.06%, the survival ([1]; strain INP-57M) was 0.01±0.00% and the survival ([1]; strain INP-64M) was 0.02±0.00%. For the same compound, the survival ([1]; strain RME-101) was 0.02±0.03%, the “eradication of persister cells (colonies from 1 mL of culture)” value (E. coli K-12; 5×MIC of cisplatin for 12 h) was “completely eradicated” and the “killing of katE or katG catalase mutants compared to the wild-type strain” value (E. coli K-12; 8 h treatment with 5×MIC of cisplatin) was “did not find any significant differences in killing”. For the same compound, the “time course dependent killing” value (E. coli K-12; late stationary phase (16 h of growth), buffered LB, cisplatin 500 μg/mL (5×MIC), ciprofloxacin 5 μg/mL (100×MIC), 8 h) was “nearly eradicated; also recorded: eradicates late stationary-phase E. coli K-12 cells” and the “regrowth when cisplatin is withdrawn” value (E. coli K-12; treated culture inoculated into fresh medium, 12 h, 18 h, and 24 h) was “no increase in turbidity or colonies”.
